Data reported in ChEMBL document CHEMBL1129742, “Development of a high specific activity sulfur-35-labeled sulfonamide radioligand that allowed the identification of a new growth hormone secretagogue receptor” (J Med Chem, 1996).
Non-standard residues stand in square brackets, D forms with d. Residues, ends and D or L forms follow the SMILES beside them.

What was measured:
[1] = organism: Rattus norvegicus; test: Effective Concentration for GH secretion from rat pituitary cell was determined; type: functional; settings: Pituitary gland cell
[2] = Dissociation constant was evaluated which is similar to Ki (inhibitory constant)

| EC50 [1] | Kd [2] | SMILES |
| --- | --- | --- |
| > 5000 nM |  | CC(C)(N)CC(=O)N[C@H]1CCc2ccccc2N(Cc2ccc(-c3ccccc3-c3nn[nH]n3)cc2)C1=O |
| 10 nM |  | C[C@H](NC(=O)[C@@H](Cc1c[nH]c2ccccc12)NC(=O)[C@@H](N)Cc1c[nH]cn1)C(=O)N[C@@H](Cc1c[nH]c2ccccc12)C(=O)N[C@H](Cc1ccccc1)C(=O)N[C@@H](CCCCN)C(N)=O (H-H[dW]AW[dF]K-NH2) |
| […] | 0.161 nM | CC(C)(N)C(=O)N[C@H](COCc1ccccc1)C(=O)N1CCC2(CC1)CN(S(C)(=O)=O)c1ccccc12 [IBUTAMOREN] |
